In patent US8470830B2, “5-(heterocyclyl)alkyl-N-(arylsulfonyl)indole compounds and their use as 5-HT6 ligands” (Suven Life Sciences Limited, priority 2007, dated 2013):
Structures can show the parent of a compound that is named as a salt. Where two headings read alike, the source gives them in different places.

What was measured:
[1] = biological target: T1, Human 5-HT6 Receptor (Homo sapiens, UniProt P50406); experiment: Binding assay for human 5-HT6 receptor ([3H]LSD radioligand)
T1 construct: expressed in transfected cells; host or cells: HEK293
Experimental: Compounds can be tested according to the following the procedures.
Receptor source: Human recombinant expressed in HEK293 cells
Radioligand [^3H]LSD (60-80 Ci/mmol)
Non-specific determinant: Methiothepin mesylate—[0.1 μM]
Reference compound: Methiothepin mesylate
Positive control: Methiothepin mesylate
Reactions were carried out in […] TRIS-HCl (pH 7.4) containing 10 μM MgCl2, 0.5 mM EDTA for 60 minutes at 37° C. The reaction was terminated by rapid vacuum filtration onto glass fiber filters. Radioactivity trapped onto the filters was determined and compared to control values in order to ascertain any interactions of test compound(s) with the cloned serotonin 5-HT6 binding site.
Literature Reference: Monsma F. J. Jr., et al., Molecular Cloning and Expression of Novel Serotonin Receptor with High Affinity for Tricyclic Psychotropic Drugs.

[2] = system: 5-HT6 receptor; conditions: literature; cited from earlier work
[3] = system: animal models for schizophrenia; conditions: literature (Pouzet et al. 2002); cited from earlier work
[4] = human recombinant receptor in HEK293 cells, [3H]LSD 1.5 nM, 60 minutes at 37° C., read-out: Radio-ligand binding data at 5-HT6 (h) Ki

T1 sequence (P50406 whole entry): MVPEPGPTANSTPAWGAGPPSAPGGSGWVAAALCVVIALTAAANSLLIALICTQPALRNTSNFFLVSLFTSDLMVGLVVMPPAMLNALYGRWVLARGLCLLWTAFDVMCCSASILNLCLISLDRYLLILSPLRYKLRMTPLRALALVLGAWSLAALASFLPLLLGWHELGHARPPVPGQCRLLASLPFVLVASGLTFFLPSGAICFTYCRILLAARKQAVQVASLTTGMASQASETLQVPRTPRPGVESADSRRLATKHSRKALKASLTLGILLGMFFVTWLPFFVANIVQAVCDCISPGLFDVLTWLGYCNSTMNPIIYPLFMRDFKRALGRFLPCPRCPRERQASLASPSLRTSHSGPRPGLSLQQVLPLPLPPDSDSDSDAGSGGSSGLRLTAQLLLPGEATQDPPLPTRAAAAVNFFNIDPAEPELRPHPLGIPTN

Compound	Ki [1, 4] [nM]	melting point [°C]	further results
Cl.Cl.O=S(=O)(c1ccc(F)cc1)n1cc(Cl)c2cc(CN3CCNCC3)ccc21 [Compound 30, 1-(4-Fluorobenzenesulfonyl)-3-chloro-5-(piperazin-1-ylmethyl)-1H-indole dihydrochloride]	2.58	254 to 259.6	
CCN1CCN(Cc2ccc3c(ccn3S(=O)(=O)c3ccc(Br)cc3)c2)CC1.Cl.Cl		264.5 to 267	
CN1CCN(Cc2ccc3c(c2)c(Cl)cn3S(=O)(=O)c2ccc(F)cc2)CC1 [Compound 25, 1-(4-Fluorobenzenesulfonyl)-3-chloro-5-(4-methylpiperazin-1-ylmethyl)-1H-indole]	2.97	118.8 to 120.1	
CN(C)CCC=C1c2ccccc2CCc2ccccc21 [amitriptyline]			affinity for the 5-HT6 receptor [2]: high affinity
CC(C)Oc1c(CN2CCN(C)CC2)ccc2c1ccn2S(=O)(=O)c1ccc(F)cc1 [Compound 28, 1-(4-Fluorobenznesulfonyl)-4-isopropoxy-5-(4-methylpiperazin-1-ylmethyl)-1H-indole]	276		
CC(C)c1ccc(S(=O)(=O)n2ccc3cc(CN4CCN(C)CC4)ccc32)cc1 [Compound 5, 1-[4-(1-Methylethyl)benzenesulfonyl]-5-(4-methylpiperazin-1-ylmethyl)-1H-indole]	17.9		
CN1CCN(Cc2ccc3c(c2)c(Cl)cn3S(=O)(=O)c2ccc(Cl)cc2)CC1 [Compound 24, 1-(4-Chlorobenzenesulfonyl)-3-chloro-5-(4-methylpiperazin-1-ylmethyl)-1H-indole]		139.2 to 140.4	
Cl.Cl.O=S(=O)(c1ccc(F)cc1F)n1cc(Cl)c2cc(CN3CCNCC3)ccc21 [Compound 32, 1-(2,4-Difluorobenzenesulfonyl)-3-chloro-5-(piperazin-1-ylmethyl)-1H-indole dihydrochloride]		241.5 to 246.1	Ki [1]: 5.77 nM
CN1CCN(Cc2ccc3c(c2)c(Cl)cn3S(=O)(=O)c2cc(C(F)(F)F)ccc2Cl)CC1 [Compound 27, 1-(2-Chloro-5-trifluoromethylbenznesulfonyl)-3-chloro-5-(4-methylpiperazin-1-ylmethyl)-1H-indole dihydrochloride]	4.16		
CN1CCN2c3ccccc3Cc3ccccc3C2C1 (stereo not drawn) [mianserin]			affinity for the 5-HT6 receptor [2]: high affinity
COc1ccc(NS(=O)(=O)c2sc3ccc(Cl)cc3c2C)cc1N1CCNCC1 [SB-271046, 5-Chloro-N-(4-methoxy-3-piperazin-1-ylphenyl)-3-methyl-2-benzothiophenesulfonamide]			activity in animal tests related to positive or negative symptoms of schizophrenia [3]: inactive
CCN1CCN(Cc2ccc3c(ccn3S(=O)(=O)c3ccc(Cl)cc3)c2)CC1.Cl.Cl		265 to 269	
Cl.Cl.O=S(=O)(c1ccccc1Br)n1ccc2cc(CN3CCNCC3)ccc21 [Compound 31, 1-(2-Bromobenzenesulfonyl)-5-(piperazin-1-ylmethyl)-1H-indole dihydrochloride]	7.77	264.2 to 266.9	

The next lines start with results.

Ki [1, 4] [nM]	melting point [°C]	Compound	further results
2.56	255.5 to 259	CCN1CCN(Cc2ccc3c(ccn3S(=O)(=O)c3ccccc3Br)c2)CC1.Cl.Cl [Compound 15, 1-(2-Bromobenzenesulfonyl)-5-(4-ethylpiperazin-1-ylmethyl)-1H-indole dihydrochloride]	
5.81	258 to 261	CCN1CCN(Cc2ccc3c(ccn3S(=O)(=O)c3ccc(C(C)C)cc3)c2)CC1.Cl.Cl [Compound 8, 1-[4-{1-Methylethyl)benzenesulfonyl]-5-(4-ethylpiperazin-1-ylmethyl)-1H-indole dihydrochloride]	
14.9	250 to 254	CC(C)c1ccc(S(=O)(=O)n2ccc3cc(CN4CCNCC4)ccc32)cc1.Cl.Cl [Compound 34, 1-[4-(1-Methylethyl)benzenesulfonyl]-5-(piperazin-1-ylmethyl)-1H-indole dihydrochloride]	
5.52	273.5 to 277	CCN1CCN(Cc2ccc3c(ccn3S(=O)(=O)c3cccc(Cl)c3Cl)c2)CC1.Cl.Cl [Compound 14, 1-(2,3-Dichlorobenzenesulfonyl)-5-(4-ethylpiperazin-1-ylmethyl)-1H-indole dihydrochloride]	
	254 to 258	CCN1CCN(Cc2ccc3c(ccn3S(=O)(=O)c3ccc(OC)cc3)c2)CC1.Cl.Cl	
3.83	266 to 270.5	CN1CCN(Cc2ccc3c(ccn3S(=O)(=O)c3ccccc3)c2)CC1.Cl.Cl [Compound 1, 1-Benzenesulfonyl-5-(4-methylpiperazin-1-ylmethyl)-1H-indole dihydrochloride]	
	263 to 267	CCN1CCN(Cc2ccc3c(ccn3S(=O)(=O)c3ccc(C)cc3)c2)CC1.Cl.Cl	
	287 to 290	CN1CCN(Cc2ccc3c(c2)c(Cl)cn3S(=O)(=O)c2cc(C(F)(F)F)ccc2Cl)CC1 (as salt: hydrochloride) [Compound 27, 1-(2-Chloro-5-trifluoromethylbenznesulfonyl)-3-chloro-5-(4-methylpiperazin-1-ylmethyl)-1H-indole dihydrochloride]	
11.3		CN1CCN(Cc2ccc3c(ccn3S(=O)(=O)c3cc(C(F)(F)F)ccc3Cl)c2)CC1 [Compound 19, 1-(2-Chloro-5-trifluoromethylbenzenesulfonyl)-5-(4-methylpiperazin-1-ylmethyl)-1H-indole]	
2.52	250.4 to 256.2	Cl.Cl.O=S(=O)(c1ccccc1)n1ccc2cc(CN3CCNCC3)ccc21 [Compound 33, 1-(Benzenesulfonyl)-5-(piperazin-1-ylmethyl)-1H-indole dihydrochloride]	
12.4	271 to 274.5	CCN1CCN(Cc2ccc3c(ccn3S(=O)(=O)c3ccc(F)cc3F)c2)CC1.Cl.Cl [Compound 10, 1-(2,4-Difluorobenzenesulfonyl)-5-(4-ethylpiperazin-1-ylmethyl)-1H-indole dihydrochloride]	
18		CN1CCN(Cc2ccc3c(ccn3S(=O)(=O)c3cccc(Cl)c3Cl)c2)CC1 [Compound 21, 1-(2,3-Dichlorobenzenesulfonyl)-5-(4-methylpiperazin-1-ylmethyl)-1H-indole]	
8.3		CN1CCN(Cc2ccc3c(ccn3S(=O)(=O)c3ccccc3Br)c2)CC1 [Compound 20, 1-(2-Bromobenzenesulfonyl)-5-(4-methylpiperazin-1-ylmethyl)-1H-indole]	
	266 to 270.5	CCN1CCN(Cc2ccc3c(ccn3S(=O)(=O)c3ccccc3)c2)CC1.Cl.Cl	
	265 to 270	CCN1CCN(Cc2ccc3c(ccn3S(=O)(=O)c3cccc(C(F)(F)F)c3)c2)CC1.Cl.Cl	
3.36	251.85 to 253	CN1CCN(Cc2ccc3c(c2)c(Cl)cn3S(=O)(=O)c2ccc(F)cc2F)CC1.Cl.Cl [Compound 26, 1-(2,4-Difluorobenzenesulfonyl)-3-chloro-5-(4-methylpiperazin-1-ylmethyl)-1H-indole dihydrochloride]	
3.02		CN1CCN(Cc2ccc3c(ccn3S(=O)(=O)c3ccc(Cl)cc3)c2)CC1 [Compound 22, 1-(4-Chlorobenzenesulfonyl)-5-(4-methylpiperazin-1-ylmethyl)-1H-indole]	
3.21	265 to 270	CCN1CCN(Cc2ccc3c(ccn3S(=O)(=O)c3ccc(F)cc3)c2)CC1.Cl.Cl [Compound 7, 1-(4-Fluorobenzenesulfonyl)-5-(4-ethylpiperazin-1-ylmethyl)-1H-indole dihydrochloride]	
14.6		CN1CCN(Cc2ccc3c(ccn3S(=O)(=O)c3ccc(F)cc3)c2)CC1 [Compound 3, 1-(4-Fluorobenzenesulfonyl)-5-(4-methylpiperazin-1-ylmethyl)-1H-indole]	
